{"source": "patent US20180161300A1", "about": "“CITRIN INHIBITORS FOR THE TREATMENT OF CANCER” (Yeda Research And Development Co. Ltd., priority 2015, published 2018)", "key": {"Citrin [1]": {"system": "Citrin", "assay": "Western blot of citrin protein after shCitrin", "type": "cell-based, human", "settings": "MDA-MB-435, Dox induction", "method": "Cells were lysed in RIPA (Sigma-Aldrich) and 0.5% protease inhibitor cocktail (Calbiochem). After centrifugation, the supernatant was collected and protein content was evaluated by the Bradford assay. One hundred micrograms from each sample under reducing conditions were loaded into each lane and separated by electrophoresis on a 10% SDS polyacrylamide gel. After electrophoresis, proteins were transferred to Immobilon transfer membranes (Tamar). Non-specific binding was blocked by incubation with TBST (10 mM Tris-HCl (pH 8.0), 150 mM NaCl, 0.1% Tween 20), containing 3% albumin from bovine serum for 1 hour at 25° C. Membranes were subsequently incubated with antibodies against Citrin (1:200, H00010165-M01, Abnova), ASS1 (1:500, sc-99178, Santa Cruz Biotechnology) and p97 (1:10,000, PA5-22257, Thermo Scientific). Antibody was detected using peroxidase-conjugated AffiniPure goat anti-rabbit IgG or goat anti-mouse IgG (Jackson ImmunoResearch) and enhanced chemiluminescence Western blotting detection reagents (EZ-Gel, Biological Industries). Gels were quantified by Gel Doc XR+(BioRad) and analysed by ImageLab 4.1 software (BioRad). The band area was calculated by the intensity of the band. The obtained value was then divided by the value obtained from the loading control. […]"}, "[2]": {"system": "U2OS human osteosarcoma cell-line transduced with shASS1", "assay": "Crystal violet proliferation, arginine deprivation combined with drug treatments", "type": "cell-based", "method": "Cells were seeded in 12-well plates at 70,000 cells/well in a triplicate. Time 0 was calculated as the time the cells became adherent, which was after about 6 hours from plating. For each time point, cells were washed with PBS X1 and fixed in 4% PFA (in PBS). Cells were then stained with 0.1% Crystal Violet (Catalog #: C0775, Sigma-Aldrich) for 20 minutes (1 ml per well) and washed with water. Cells were then incubated with 10% acetic acid for 20 minutes with shaking. Extract was then diluted 1:4 in water and absorbance was measured at 590 nm every 24 hours.\nU2OS human osteosarcoma cell-line was seeded in 6-well plates at 80,000 cells/well. The following day, cells were treated with either 100 nM Rapamycin (#R0395, Sigma-Aldrich) or with 10 μM 5FU (#F6627, Sigma-Aldrich) in regular medium, with 10% dialyzed FCS-arginine-free-RPMI (Catalogue No. 06-1104-34-1A, Biological Industries, Kibbutz beit-haemek, Israel), or with both arginine depleted medium and one of these drugs. Rapamycin and 5FU were renewed into the medium every day, whereas fresh arginine-free medium was supplemented twice a week."}, "Citrin [3]": {"target": "T1, Citrin (Homo sapiens, UniProt Q9UJS0)", "T1 sequence (Q9UJS0 1-675)": "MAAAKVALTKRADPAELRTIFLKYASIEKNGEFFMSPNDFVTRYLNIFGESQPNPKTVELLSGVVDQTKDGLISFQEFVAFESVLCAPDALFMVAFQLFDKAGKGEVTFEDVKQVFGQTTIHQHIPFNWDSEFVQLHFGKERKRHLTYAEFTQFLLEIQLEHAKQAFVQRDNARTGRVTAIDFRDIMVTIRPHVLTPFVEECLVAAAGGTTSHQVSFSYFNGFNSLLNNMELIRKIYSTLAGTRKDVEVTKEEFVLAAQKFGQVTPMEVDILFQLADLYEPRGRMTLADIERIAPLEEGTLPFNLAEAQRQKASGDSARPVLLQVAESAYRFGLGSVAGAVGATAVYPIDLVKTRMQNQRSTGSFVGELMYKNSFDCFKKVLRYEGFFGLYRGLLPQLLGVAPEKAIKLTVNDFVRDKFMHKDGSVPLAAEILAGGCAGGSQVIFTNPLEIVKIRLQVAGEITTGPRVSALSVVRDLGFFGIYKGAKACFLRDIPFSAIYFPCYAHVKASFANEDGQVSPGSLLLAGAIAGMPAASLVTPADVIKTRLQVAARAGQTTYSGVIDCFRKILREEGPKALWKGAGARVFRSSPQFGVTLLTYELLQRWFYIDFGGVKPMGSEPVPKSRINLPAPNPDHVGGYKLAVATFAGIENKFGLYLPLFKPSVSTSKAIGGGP", "assay": "Metabolomics analysis for potential citrin inhibitors (15N-alpha-glutamine labelling, GC-MS)", "type": "cell-based", "parameters": "endogenous in cells; host or cells: U2OS osteosarcoma cells", "settings": "U2OS, 4 mM L-Glutamine (ALPHA-15N), compound 10-100 μM, 24 hours", "method": "Osteosarcoma cell line (U2OS) were seeded at 1.5 to 2×10^6 cells per 10 cm plate. The next day (60% confluence) the cells were incubated with 4 mM of L-Glutamine (ALPHA-15N, 98%; Cat. Number: NLM-1016-1; Cambridge Isotope Laboratories) in the presence of either control (medium only) or one of compounds 1, 2, or 3 (at a concentration range between 10-100 μM), for 24 hours. Compound “1”=D-Glutamic acid; compound “2”=L-glutamic acid-5-methyl ester; “compound “3”=L-glutamic acid-gamma-benzyl ester. Compounds 1-3 are commercially available and were bought from Sigma Aldrich. Subsequently, cells were washed with ice-cold saline, lysed with 50% methanol in water and quickly scraped followed by three freeze-thaw cycles in liquid nitrogen. The insoluble material was pelleted in a cooled centrifuge (4° C.) and the supernatant was collected for consequent GC-MS analysis. Samples were dried under air flow at 42° C. using a Techne Dry-Block Heater with sample concentrator (Bibby Scientific) and the dried samples were treated with 40 μl of a methoxyamine hydrochloride solution (20 mg ml^−1 in pyridine) at 37° C. for 90 minutes while shaking followed by incubation with 70 μl N,O-bis (trimethylsilyl) trifluoroacetamide (Sigma) at 37° C. for an additional 30 minutes.\nGC-MS analysis used a gas chromatograph (7820AN, Agilent Technologies) interfaced with a mass spectrometer (5975 Agilent Technologies). An HP-5 ms capillary column 30 m×250 μm×0.25μm (19091S-433, Agilent Technologies) was used. Helium carrier gas was maintained at a constant flow rate of 1.0 ml min −1. The GC column temperature was programmed from 70 to 150° C. via a ramp of 4° C. min −1, […] via a ramp of 9° C. min −1, 215-300° C. via a ramp of 25° C. min −1 and maintained at 300° C. for an additional 5 minutes. The MS was by electron impact ionization and operated in full-scan mode from m/z=30-500. The inlet and MS transfer line temperatures were maintained at 280° C., and the ion source temperature was 250° C. Sample injection (1 μl) was in splitless mode.\nSpecifically, Aspartate at a mass of M+1 is a metabolite that comes out of the mitochondria via Citrin."}, "Citrin [4]": {"target": "T1, Citrin", "settings": "at 1 about mM; cited from earlier work"}}, "data": [{"molecule": "5′-GTATCCTATCGATCTTGTA-3′ (expressed or natural sequence) [sh909]", "values": [{"measurement": "citrin protein production (Western blot)", "setting": "Citrin [1]", "value": "no production of citrin"}]}, {"molecule": "5′-TTAAGAAAGTGCTACGCTA-3′ (expressed or natural sequence) [sh901]", "values": [{"measurement": "citrin protein production (Western blot)", "setting": "Citrin [1]", "value": "no production of citrin"}]}, {"molecule": "O=c1[nH]cc(F)c(=O)[nH]1", "note": "[5FU, Fluorouracil]", "values": [{"measurement": "proliferation, drug together with arginine depleted medium", "setting": "[2]; U2OS shASS1, arginine depleted medium plus 100 nM Rapamycin or 10 μM 5FU", "value": "significant additive beneficial effect"}, {"measurement": "proliferation, isolated drug treatment", "setting": "[2]; U2OS shASS1, complete medium, 100 nM Rapamycin or 10 μM 5FU", "value": "more beneficial than Rapamycin"}]}, {"molecule": "N[C@H](CCC(=O)O)C(=O)O", "note": "[Compound 1, D-Glutamic acid]", "values": [{"measurement": "Uracil M+1 inhibition (in words)", "setting": "Citrin [3]", "value": "inhibited"}]}, {"molecule": "COC(=O)CC[C@H](N)C(=O)O", "note": "[Compound 2, L-glutamic acid-5-methyl ester]", "values": [{"measurement": "Uracil M+1 inhibition (in words)", "setting": "Citrin [3]", "value": "inhibited"}]}, {"molecule": "N[C@@H](CCC(=O)OCc1ccccc1)C(=O)O", "note": "[Compound 3, L-glutamic acid-gamma-benzyl ester]", "values": [{"measurement": "Aspartate M+1 relative to control", "setting": "Citrin [3]", "value": "inhibited"}, {"measurement": "Uracil M+1 inhibition", "setting": "Citrin [3]", "value": "~35", "unit": "%"}]}, {"molecule": "CCN1C(=O)C=CC1=O", "note": "[N-ethylmaleimid]", "values": [{"measurement": "inhibition of citrin in vitro", "setting": "Citrin [4]", "value": "about 50%"}]}]}
